US20090028840A1, “Compositions For Preventing Or Treating Arthritis Comprising Lactic Acid Bacteria and Collangen As Active Ingredients” (Gwangju Institute of Sciecne and Technology, priority 2005, published 2009)

What was measured:
[1] = test system: collagen-induced arthritis (CIA); test: Comparative tests for treatment efficacy in collagen-induced arthritis (CIA) rats; assay type: in vivo, Lewis rat; conditions: acute phase (until 35 days after immunization), FIGS. 3 and 4
[2] = test system: infiltration of lymphocytes into joint tissues; test: Histological analysis of ankle joints of CIA rats (hematoxylin and eosin); assay type: in vivo, rat; conditions: 35 days after immunization, FIG. 5
Description: Joints dissected were washed with PBS and fixed for 24 hr in 4% paraformaldehyde, followed by decalcification for 2-3 days in decalcification solution (Merck). The decalcified joint tissues were embedded in paraffin, sectioned to […], deparaffinized, stained with hematoxylin and eosin, and observed under microscope. A basic dye, hematoxylin binds to nucleus containing negative-charged DNA and RNA molecules and an acidic dye, eosin binds to cytoplasmic proteins and collagen with positive charge.

Compound | treatment efficacy on arthritis during acute phase [1] | infiltration of lymphocytes (immune cells) into joints [2]
Lactobacillus casei [lactic acid bacteria] | low | 
CN(Cc1cnc2nc(N)nc(N)c2n1)c1ccc(C(=O)N[C@@H](CCC(=O)O)C(=O)O)cc1 [MTX, methotrexate] | better until acute phase (until 35 days after immunization) than the present composition | little or no occurrence of the infiltration of lymphocytes
